# Reference: patent US9988361B2, “Anti-enterovirus 71 thiadiazolidine derivative” (JIANGSU KANION PHARMACEUTICAL CO. LTD, priority 2014, dated 2018)
# Tested on: EV71 virus strain Shenzhen/120F1/09
# Assay: EV71 in-vitro cytopathic effect (CPE) test
# Assay type: cell-based, RD cells of human rhabdomyoma
# Details: Enterovirus A, 72 h; RD cells, EV71 100 TCID50, 3 days, CCK8 readout; read-out: EC50 by EC71 CPE test, EV71
# Experimental: Test of EV71 In-Vitro Cytopathic Effect (CPE) To test the in-vitro antiviral activity and cytotoxicity of a compound to HFMD virus EV71 by means of cytopathic effect (CPE) test. […] Cell line: RD cells of human rhabdomyoma • 3. Cell culture media: DMEM medium added with 10% serum, Penicillin/Streptomycin and L-[…]×) • 4. […] Cell inoculation: digest off the RD cells from the attached state, then dilute them with culture medium to a density of 80000/ml and inoculate 100 μl into the micro wells the 96-well plate. • 2. Dilution of compound: • Step 1: prepare the dry powder of a compound to test into a 10 mM solution in DMSO. Then dilute the compound by three times to eight concentration points. Dilute the reference compounds with the same method. • Step 2: further dilute the diluted solution of the compound in DMSO with cell culture medium. Add 10 μl DMSO solution for each well into 240 μl culture medium. • 3. Add the diluted compound solution by 50 μl each well into the 96-well plate inoculated with cells (double holes, final concentration of DMSO is 1%). • 4. Dilution of virus: dilute EV71 virus solution by 10000 times to a concentration of 100 TCID50/50 μl/. Add the diluted virus solution by 50 μl each well into the 96-well plate. Prepare another 96-well plate to replace the virus with culture medium and similarly inoculate the cells. Add the compound to test the toxicity of compound on cells. • 5. Cultivate the 96-well plate 3 days at the conditions of 37° C. and 5% CO2. • 6. EC50 and CC50 tests: add the cellular activity test reagent CCK8 into the micro-wells by 20 μl/well. Use ELIASA to read the absorbancy at the wavelength of 450 nm and 630 nm. • 7.
row,SMILES,EC50 [nM]
1,"O=S1(=O)N(CCCCCOc2ccc(-c3ccc(Cl)cc3)cc2)CCN1c1ccncc1 [Embodiment 6, 2-(5-((4′-chloro-[1,1′-biphenyl]-4-yl)oxy)pentyl)-5-(pyridin-4-yl)-1,2,5-thiadiazolidine-1,1-dioxide]",50 to 100
2,"Cn1nnc(-c2ccc(OCCCCCN3CCN(c4ccnc(N)c4)S3(=O)=O)cc2)n1 [Embodiment 61, 2-(2-amino-pyridin-4-yl)-5-(5-(4-(2-methyl-2H-tetrazol-5-yl)-phenoxy)-pentyl)-1,2,5-thiadiazolidine-1,1-dioxide]",< 50
3,CCO/N=C1\CCc2cc(OCCCCCN3CCN(c4ccncc4)S3(=O)=O)ccc21 [Embodiment 8],50 to 100
4,"CCO/N=C1\CCc2cc(OCCCCCN3CCN(c4ccnc(NC)c4)S3(=O)=O)ccc21 [Embodiment 50, (E)-2-(5-((1-(ethoxy-imino)-2,3-dihydro-1H-inden-5-yl)-oxy)-pentyl)-5-(2-(methylamino)-pyridin-4-yl)-1,2-thiadiazolidine-1,1-dioxide]",< 50
5,"CCc1cc(-c2ccc(OCCCCCN3CCN(c4ccnc(N)c4)S3(=O)=O)cc2)no1 [Embodiment 67, 2-(2-amino-pyridin-4-yl)-5-(5-(4-(5-ethylisoxazole-3-yl)-phenoxy)-pentyl)-1,2,5-thiadiazolidine-1,1-dioxide]",< 50
6,"CCn1ncc(-c2ccc(OCCCCCN3CCN(c4ccnc(N)c4)S3(=O)=O)cc2)n1 [Embodiment 64, 2-(2-amino-pyridin-4-yl)-5-(5-(4-(2-ethyl-2H-1,2,3-triazol-4-yl)-phenoxy)-pentyl)-1,2,5-thiadiazolidine-1,1-dioxide]",< 50
7,"Nc1cc(N2CCN(CCCCCOc3ccc(C=O)cc3)S2(=O)=O)ccn1 [Embodiment 24, 4-((5-(5-(2-aminopyridin-4-yl)-1,1-dioxide-1,2,5-thiadiazolidine-2-yl)-pentyl)-oxy)-benzaldehyde]",500 to 1000
8,"CCc1noc2cc(OCCCCCN3CCN(c4ccnc(N)c4)S3(=O)=O)ccc12 [Embodiment 62, 2-(2-amino-pyridin-4-yl)-5-(5-((3-ethyl-benzo[d]isoxazol-6-yl)-oxy)-pentyl)-1,2,5-thiadiazolidine-1,1-dioxide]",100 to 500
9,"CCO/N=C(\CC)c1ccc(OCCCCCN2CCN(c3ccnc(N)c3)S2(=O)=O)cc1 [Embodiment 54, (E)-2-(2-amino-pyridin-4-yl)-5-(5-(4-(1-(ethoxyimino)-propyl)-phenoxy)-pentyl)-1,2,5-thiadiazolidine-1,1-dioxide]",500 to 1000
10,"O=S1(=O)N(CCOCCOc2ccc(-c3ccc(Cl)cc3)cc2)CCN1c1ccncc1 [Embodiment 13, 2-(2-(2-((4′-chloro-[1,1′-biphenyl]-4-yl)oxy)ethoxy)ethyl)-5-(pyridin-4-yl)-1,2,5-thiadiazolidine-1,1-dioxide]",100 to 500
11,CCO/N=C1\CCc2cc(OCCCCCN3CCN(c4ccnc(N)c4)S3(=O)=O)cc(F)c21 [Embodiment 59],< 50
12,"CCn1nnc(-c2ccc(OCCCCCN3CCN(c4ccncc4)S3(=O)=O)cc2)n1 [Embodiment 11, 2-(5-(4-(2-ethyl-2H-tetrazol-5-yl)-phenoxy)pentyl)-5-(pyridin-4-yl)-1,2,5-thiadiazolidine-1,1-dioxide]",50 to 100
13,"CCn1nnc(-c2ccc(OCCC3(CCN4CCN(c5ccnc(N)c5)S4(=O)=O)CC3)cc2)n1 [Embodiment 73, 2-(2-amino-pyridin-4-yl)-5-(2-(1-(2-(4-(2-ethyl-2H-tetrazol-5-yl)-phenoxy)-ethyl)-cyclic propyl)-ethyl)-1,2,5-thiadiazolidine-1,1-dioxide]",< 50
14,"CCO/N=C/c1ccc(OCCCCCN2CCN(c3ccnc(NC(C)=O)c3)S2(=O)=O)cc1 [Embodiment 36, (E)-N-(4-(5-(5-(4-((ethoxy-imino)-methyl)-phenoxy)-pentyl)-1,1-dioxide-1,2,5-thiadiazolidine-2-yl)-pyridin-2-yl)-acetamide]",< 50
15,CCO/N=C/c1ccc(OCCCCN2CCN(c3ccnc(N)c3)S2(=O)=O)cc1 [Embodiment 26],100 to 500
16,"CCO/N=C/c1ccc(OCCCCCN2CCN(c3ccnc(N4CCC4)c3)S2(=O)=O)cc1 [Embodiment 42, (E)-4-((5-(5-(2-(azetidin-1-yl)-pyridin-4-yl)-1,1-dioxide-1,2,5-thiadiazolidine-2-yl)-pentyl)-oxy)-benzaldehyde-O-ethyl ketoxime]",100 to 500
17,"CCO/N=C/c1ccc(OCCC(C)CCN2CCN(c3ccnc(N)c3)S2(=O)=O)cc1 (stereo not shown) [Embodiment 17, (E)-4-((5-(5-(2-amino-pyridin-4-yl)-1,1-dioxo-1,2,5-thiadiazolidine-2-yl)-3-methyl-pentyl)-oxy)-benzaldehyde-O-ethylketoxime]",< 50
18,"CCO/N=C/c1ccc(OCCCCCN2CCN(c3ccnc(C)c3)S2(=O)=O)cc1 [Embodiment 32, (E)-4-((5-(5-(2-methylpyridin-4-yl)-1,1-dioxide-1,2,5-thiadiazol-2-yl)-pentyl)-oxy)-benzaldehyde-O-ethyl ketoxime]",< 50
19,"CCO/N=C1\CCc2cc(OCCCCCN3CCN(c4ccnc(NCCO)c4)S3(=O)=O)ccc21 [Embodiment 51, (E)-2-(5-((1-(ethoxy-imino)-2,3-dihydro-1H-inden-5-yl)-oxy)-pentyl)-5-(2-((2-hydroxyethyl)-amino)-pyridin-4-yl)-1,2,5-thiadiazolidine-1,1-dioxide]",< 50
20,"CCn1nnc(-c2ccc(OCCCCCN3CCN(c4ccnc(N)c4)S3(=O)=O)cc2)n1 [Embodiment 27, 4-(5-(5-(4-(2-ethyl-tetrazol-5-yl)-phenoxy)-pentyl)-1,1-dioxide-1,2,5-thiadiazolidine-2-yl)-pyridin-2-amine]",< 50
21,CCO/N=C1\CCc2cc(OCCCCCN3CCN(c4ccc(N)nc4)S3(=O)=O)ccc21 [Embodiment 47],500 to 1000

# Second part, the compound after the results:
row,EC50 [nM],SMILES
1,< 50,"CCn1nnc(-c2ccc(OCCC(C)(C)CCN3CCN(c4ccnc(N)c4)S3(=O)=O)cc2)n1 [Embodiment 76, 4-(5-(5-(4-(2-ethyl-tetrazol-5-yl)-phenoxy)-3,3-dimethyl-pentyl)-1,1-dioxo-1,2,5-thiadiazolidine-2-yl)-pyridin-2-amine]"
2,< 50,"CCn1nnc(-c2ccc(OCCCCCN3CCN(c4ccnc(N)c4)S3(=O)=O)nc2)n1 [Embodiment 74, 4-(5-(5-((5-(2-ethyl-tetrazol-5-yl)-2-pyridinyl)-oxy)-pentyl)-1,1-dioxo-1,2,5-thiadiazolidine-2-yl)-pyridin-2-amine]"
3,< 50,"CCOc1noc2cc(OCCCCCN3CCN(c4ccnc(N)c4)S3(=O)=O)ccc12 [Embodiment 28, 4-(5-(5-((3-ethoxy-1,2-benzoxazol-6-yl)-oxy)-pentyl)-1,1-dioxide-1,2,5-thiadiazolidine-2-yl)-pyridin-2-amine]"
4,< 50,"CCOc1noc2cc(OCCC(C)CCN3CCN(c4ccncc4)S3(=O)=O)ccc12 (stereo not shown) [Embodiment 15, 2-(5-((3-ethoxy-benzo[d]isoxazole-6-yl)-oxy)-3-methyl-pentyl)-5-(pyridin-4-yl)-1,2,5-thiadiazolidine-1,1-dioxide]"
5,< 50,CC(C)n1nnc(-c2ccc(OCCCCCN3CCN(c4ccnc(N)c4)S3(=O)=O)cc2)n1 [Embodiment 60]
6,100 to 500,CCO/N=C1\CCCc2cc(OCCCCCN3CCN(c4ccnc(N)c4)S3(=O)=O)ccc21 [Embodiment 65]
7,< 50,"CCO/N=C/c1ccc2c(c1)CCC(CCCCN1CCN(c3ccncc3)S1(=O)=O)O2 (stereo not shown) [Embodiment 21, (E)-2-(4-(1,1-dioxo-5-(pyridin-4-yl)-1,2,5-thiadiazolidine-2-yl)-butyl)-chroman-6-formaldehyde-O-ethyloxime]"
8,< 50,"CCOc1noc2cc(OCCCCCN3CCN(c4ccnc(NC)c4)S3(=O)=O)ccc12 [Embodiment 18, 2-(5-((3-ethoxy-benzo[d]isoxazol-6)-oxo)-pentyl)-5-(2-(methylamino)-pyridine-4)-1,2,5-thiadiazoline-1,1-dioxide]"
9,500 to 1000,"Nc1cc(N2CCN(CCCCCOc3ccc(-c4noc(C(F)(F)F)n4)cc3)S2(=O)=O)ccn1 [Embodiment 68, 2-(2-amino-pyridin-4-yl)-5-(5-(4-(5 (trifluoromethyl)-1,2,4-oxadiazol-3-yl)-phenoxy)-pentyl)-1,2,5-thiadiazolidine-1,1-dioxide]"
10,100 to 500,CCO/N=C1\CCc2cc(OCCCCCN3CCN(c4ccnnc4)S3(=O)=O)ccc21 [Embodiment 70]
11,< 50,"CC(C)O/N=C/c1ccc(OCCCCCN2CCN(c3ccnc(N)c3)S2(=O)=O)cc1 [Embodiment 53, (E)-4-((5-(5-(2-amino-pyridin-4-yl)-1,1-dioxide-1,2,5-thiadiazolidine-2-yl)-pentyl)-oxy)-benzaldehyde-O-isopropyl oxime]"
12,< 50,CCO/N=C/c1ccc(OCCCCCN2CCN(c3ccncc3)S2(=O)=O)cc1 [Embodiment 7]
13,< 50,Nc1cc(N2CCN(CCCCCOc3ccc(/C=N/OCC4CC4)cc3)S2(=O)=O)ccn1 [Embodiment 52]
